Source: patent US11787825B2 (priority 2021, dated 2023)
Read-outs that look alike come from different tables or passages of the source.

[1] = 0.1N HCL, 1.0% DMSO, 24-hour incubation at ambient temperature, maximum theoretical compound concentration 100 μM
[2] = 1×PBS buffer (pH 7.4), 1.0% DMSO, 24-hour incubation at ambient temperature, maximum theoretical compound concentration 100 μM

| SMILES | pH 2 solubility [1] | pH 7 solubility [2] | pH 2 solubility (pH 2) | pH 7 solubility (pH 7.4) |
| --- | --- | --- | --- | --- |
| CC(C)(C#Cc1ccc(-c2ccc(Cl)c3c(N(C(=O)CCCC(=O)O)S(C)(=O)=O)nn(CC(F)(F)F)c23)c([C@H](Cc2cc(F)cc(F)c2)NC(=O)Cn2nc(C(F)(F)F)c3c2C(F)(F)[C@@H]2C[C@H]32)n1)S(C)(=O)=O [Compound 25, 5-(N-(4-chloro-7-(2-((S)-1-(2-((3bS,4aR)-5,5-difluoro-3-(trifluoromethyl)-3b,4,4a,5-tetrahydro-1H-cyclopropa[3,4]cyclopenta[1,2-c]pyrazol-1-yl)acetamido)-2-(3,5-difluorophenyl)ethyl)-6-(3-methyl-3-(methylsulfonyl)but-1-yn-1-yl)pyridin-3-yl)-1-(2,2,2-trifluoroethyl)-1H-indazol-3-yl)methylsulfonamido)-5-oxopentanoic acid] | 1/1 μM | 1/1 μM |  |  |
| COC(=O)CCC(=O)N(c1nn(CC(F)(F)F)c2c(-c3ccc(C#CC(C)(C)S(C)(=O)=O)nc3[C@H](Cc3cc(F)cc(F)c3)NC(=O)Cn3nc(C(F)(F)F)c4c3C(F)(F)[C@@H]3C[C@H]43)ccc(Cl)c12)S(C)(=O)=O [Compound 10, methyl 4-(N-(4-chloro-7-(2-((S)-1-(2-((3bS,4aR)-5,5-difluoro-3-(trifluoromethyl)-3b,4,4a,5-tetrahydro-1H-cyclopropa[3,4]cyclopenta[1,2-c]pyrazol-1-yl)acetamido)-2-(3,5-difluorophenyl)ethyl)-6-(3-methyl-3-(methylsulfonyl)but-1-yn-1-yl)pyridin-3-yl)-1-(2,2,2-trifluoroethyl)-1H-indazol-3-yl)methylsulfonamido)-4-oxobutanoate] | 1/1 μM | 1/1 μM |  |  |
| CN[C@H](C(=O)N(c1nn(CC(F)(F)F)c2c(-c3ccc(C#CC(C)(C)S(C)(=O)=O)nc3[C@H](Cc3cc(F)cc(F)c3)NC(=O)Cn3nc(C(F)(F)F)c4c3C(F)(F)[C@@H]3C[C@H]43)ccc(Cl)c12)S(C)(=O)=O)C(C)C [Compound 21, N-(4-chloro-7-(2-((S)-1-(2-((3bS,4aR)-5,5-difluoro-3-(trifluoromethyl)-3b,4,4a,5-tetrahydro-1H-cyclopropa[3,4]cyclopenta[1,2-c]pyrazol-1-yl)acetamido)-2-(3,5-difluorophenyl)ethyl)-6-(3-methyl-3-(methylsulfonyl)but-1-yn-1-yl)pyridin-3-yl)-1-(2,2,2-trifluoroethyl)-1H-indazol-3-yl)-3-methyl-2-(methylamino)-N-(methylsulfonyl)butanamide] | 72 μM | 2 μM |  |  |
| COCCOCCOCCOCCOCC(=O)N(c1nn(CC(F)(F)F)c2c(-c3ccc(C#CC(C)(C)S(C)(=O)=O)nc3[C@H](Cc3cc(F)cc(F)c3)NC(=O)Cn3nc(C(F)(F)F)c4c3C(F)(F)[C@@H]3C[C@H]43)ccc(Cl)c12)S(C)(=O)=O [Compound 9, N-(4-chloro-7-(2-((S)-1-(2-((3bS,4aR)-5,5-difluoro-3-(trifluoromethyl)-3b,4,4a,5-tetrahydro-1H-cyclopropa[3,4]cyclopenta[1,2-c]pyrazol-1-yl)acetamido)-2-(3,5-difluorophenyl)ethyl)-6-(3-methyl-3-(methylsulfonyl)but-1-ynyl)pyridin-3-yl)-1-(2,2,2-trifluoroethyl)-1H-indazol-3-yl)-N-(methylsulfonyl)-2,5,8,11,14-pentaoxahexadecan-16-amide] | 1/1 μM | 1/1 μM |  |  |
| CC(C)(CC(=O)O)C(=O)N(c1nn(CC(F)(F)F)c2c(-c3ccc(C#CC(C)(C)S(C)(=O)=O)nc3[C@H](Cc3cc(F)cc(F)c3)NC(=O)Cn3nc(C(F)(F)F)c4c3C(F)(F)[C@@H]3C[C@H]43)ccc(Cl)c12)S(C)(=O)=O [Compound 15, 4-(N-(4-chloro-7-(2-((S)-1-(2-((3bS,4aR)-5,5-difluoro-3-(trifluoromethyl)-3b,4,4a,5-tetrahydro-1H-cyclopropa[3,4]cyclopenta[1,2-c]pyrazol-1-yl)acetamido)-2-(3,5-difluorophenyl)ethyl)-6-(3-methyl-3-(methylsulfonyl)but-1-yn-1-yl)pyridin-3-yl)-1-(2,2,2-trifluoroethyl)-1H-indazol-3-yl)methylsulfonamido)-3,3-dimethyl-4-oxobutanoic acid] | 1/1 μM | 1/1 μM |  |  |
| CC(C)[C@H](N)C(=O)OCCCCC(=O)N(c1nn(CC(F)(F)F)c2c(-c3ccc(C#CC(C)(C)S(C)(=O)=O)nc3[C@H](Cc3cc(F)cc(F)c3)NC(=O)Cn3nc(C(F)(F)F)c4c3C(F)(F)[C@@H]3C[C@H]43)ccc(Cl)c12)S(C)(=O)=O [Compound 14] | 7 μM | 1 μM |  |  |
| CN(C)CCCC[C@H](N)C(=O)N(c1nn(CC(F)(F)F)c2c(-c3ccc(C#CC(C)(C)S(C)(=O)=O)nc3[C@H](Cc3cc(F)cc(F)c3)NC(=O)Cn3nc(C(F)(F)F)c4c3C(F)(F)[C@@H]3C[C@H]43)ccc(Cl)c12)S(C)(=O)=O [Compound 16, ((S)-2-amino-N-(4-chloro-7-(2-((S)-1-(2-((3bS,4aR)-5,5-difluoro-3-(trifluoromethyl)-3b,4,4a,5-tetrahydro-1H-cyclopropa[3,4]cyclopenta[1,2-c]pyrazolyl)acetamido)-2-(3,5-difluorophenyl)ethyl)-6-(3-methyl-3-(methylsulfonyl)but-1-ynyl)pyridin-3-yl)-1-(2,2,2-trifluoroethyl)-1H-indazol-3-yl)-6-(dimethylamino)-N-(methylsulfonyl)hexanamide)] | 92 μM | 20 μM |  |  |
| CC(C)(CC(=O)N(c1nn(CC(F)(F)F)c2c(-c3ccc(C#CC(C)(C)S(C)(=O)=O)nc3[C@H](Cc3cc(F)cc(F)c3)NC(=O)Cn3nc(C(F)(F)F)c4c3C(F)(F)[C@@H]3C[C@H]43)ccc(Cl)c12)S(C)(=O)=O)c1c(CC(=O)O)cccc1OP(=O)(O)O [Compound 70, 2-(2-(4-(N-(4-chloro-7-(2-((S)-1-(2-((3bS,4aR)-5,5-difluoro (trifluoromethyl)-3b,4,4a,5-tetrahydro-1H-cyclopropa[3,4]cyclopenta[1,2-c]pyrazolyl)acetamido)-2-(3,5-difluorophenyl)ethyl)-6-(3-methyl-3-(methylsulfonyl)but-1-ynyl)pyridin-3-yl)-1-(2,2,2-trifluoroethyl)-1H-indazol-3-yl)methylsulfonamido)-2-methyloxobutan-2-yl)-3-(phosphonooxy)phenyl)acetic acid] |  |  | 7/94 μM | 7/94 μM |
| COC(=O)N[C@@H](C)C(=O)N(c1nn(CC(F)(F)F)c2c(-c3ccc(C#CC(C)(C)S(C)(=O)=O)nc3[C@H](Cc3cc(F)cc(F)c3)NC(=O)Cn3nc(C(F)(F)F)c4c3C(F)(F)[C@@H]3C[C@H]43)ccc(Cl)c12)S(C)(=O)=O [Compound 7, methyl ((5)-1-(N-(4-chloro-7-(2-((S)-1-(2-((3bS,4aR)-5,5-difluoro-3-(trifluoromethyl)-3b,4,4a,5-tetrahydro-1H-cyclopropa[3,4]cyclopenta[1,2-c]pyrazol-1-yl)acetamido)-2-(3,5-difluorophenyl)ethyl)-6-(3-methyl-3-(methylsulfonyl)but-1-yn-1-yl)pyridin-3-yl)-1-(2,2,2-trifluoroethyl)-1H-indazol-3-yl)methylsulfonamido)-1-oxopropan-2-yl)carbamate] | 1/1 μM | 1/1 μM |  |  |
| CC(C)(C#Cc1ccc(-c2ccc(Cl)c3c(N(C(=O)[C@H](CCC(=O)O)NC(=O)C(=O)O)S(C)(=O)=O)nn(CC(F)(F)F)c23)c([C@H](Cc2cc(F)cc(F)c2)NC(=O)Cn2nc(C(F)(F)F)c3c2C(F)(F)[C@@H]2C[C@H]32)n1)S(C)(=O)=O [Compound 24, (S)-4-(carboxyformamido)-5-(N-(4-chloro-7-(2-((S)-1-(2-((3bS,4aR)-5,5-difluoro-3-(trifluoromethyl)-3b,4,4a,5-tetrahydro-111-cyclopropa[3,4]cyclopenta[1,2-c]pyrazol-1-yl)acetamido)-2-(3,5-difluorophenyl)ethyl)-6-(3-methyl-3-(methylsulfonyl)but-1-yn-1-yl)pyridin-3-yl)-1-(2,2,2-trifluoroethyl)-1H-indazol-3-yl)methylsulfonamido)-5-oxopentanoic acid] | 1 μM | 14 μM |  |  |
| CC(C)(C#Cc1ccc(-c2ccc(Cl)c3c(N(C(=O)[C@@H](N)CCCCN)S(C)(=O)=O)nn(CC(F)(F)F)c23)c([C@H](Cc2cc(F)cc(F)c2)NC(=O)Cn2nc(C(F)(F)F)c3c2C(F)(F)[C@@H]2C[C@H]32)n1)S(C)(=O)=O [Compound 11, (S)-2,6-diamino-N-(4-chloro-7-(2-((S)-1-(2-((3bS,4aR)-5,5-difluoro-3-(trifluoromethyl)-3b,4,4a,5-tetrahydro-1H-cyclopropa[3,4]cyclopenta[1,2-c]pyrazol-1-yl)acetamido)-2-(3,5-difluorophenyl)ethyl)-6-(3-methyl-3-(methylsulfonyl)but-1-yn-1-yl)pyridin-3-yl)-1-(2,2,2-trifluoroethyl)-1H-indazol-3-yl)-N-(methylsulfonyl)hexanamide] | 100 μM | 43 μM |  |  |
| CC(C)(C#Cc1ccc(-c2ccc(Cl)c3c(N(C(=O)CN)S(C)(=O)=O)nn(CC(F)(F)F)c23)c([C@H](Cc2cc(F)cc(F)c2)NC(=O)Cn2nc(C(F)(F)F)c3c2C(F)(F)[C@@H]2C[C@H]32)n1)S(C)(=O)=O [Compound 12, 2-amino-N-(4-chloro-7-(2-((S)-1-(2-((3bS,4aR)-5,5-difluoro (trifluoromethyl)-3b,4,4a,5-tetrahydro-1H-cyclopropa[3,4]cyclopenta[1,2-c]pyrazolyl)acetamido)-2-(3,5-difluorophenyl)ethyl)-6-(3-methyl-3-(methylsulfonyl)but-1-ynyl)pyridin-3-yl)-1-(2,2,2-trifluoroethyl)-1H-indazol-3-yl)-N-(methylsulfonyl)acetamide] | 65 μM | 8 μM |  |  |
